How the values were obtained:
Assay in all cases: relative viability (nuclei count vs DMSO), 5 days (fraction); higher = more cells survive
HCC-44 = tested on: HCC-44
Outline: (§1)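 Nuclei were stained with Hoechst during a one-step fixation (final 0.05% Triton X-100, 1% formaldehyde, 1 ug/ml Hoechst) carried out 5 days after dosing, then counted on 4× images. The cells, lung cancer lines in 1536-well plates, had been dosed by pin tool the day after seeding with one drug alone or a fixed anchor-drug dose plus five library-drug doses (not always all listed) in √10 steps. Relative viability is the nuclei count in treated wells divided by that in vehicle wells, and each value is the median of duplicate plates.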

BEN = tested on: BEN
Outline: as §1

NCI-H727 = tested on: NCI-H727
Outline: as §1

NCI-H322M = tested on: NCI-H322M
Outline: as §1

ABC-1 = tested on: ABC-1
Outline: as §1

PC-3 [JPC-3] = tested on: PC-3 [JPC-3]
Outline: as §1

NCI-H1563 = tested on: NCI-H1563
Outline: as §1

NCI-H522 = tested on: NCI-H522
Outline: as §1

NCI-H1651 = tested on: NCI-H1651
Outline: as §1

EKVX = tested on: EKVX
Outline: as §1

CAL-12T = tested on: CAL-12T
Outline: as §1

NCI-H2023 = tested on: NCI-H2023
Outline: as §1

NCI-H358 = tested on: NCI-H358
Outline: as §1

NCI-H520 = tested on: NCI-H520
Outline: as §1

EMC-BAC-2 = tested on: EMC-BAC-2
Outline: as §1

NCI-H838 = tested on: NCI-H838
Outline: as §1

NCI-H460 = tested on: NCI-H460
Outline: as §1

SW 900 = tested on: SW 900
Outline: as §1

HCC-15 = tested on: HCC-15
Outline: as §1

COR-L 105 = tested on: COR-L 105
Outline: as §1

201T = tested on: 201T
Outline: as §1

LK-2 = tested on: LK-2
Outline: as §1

LU99A = tested on: LU99A
Outline: as §1

CN1CCN(CCOc2cc(OC3CCOCC3)c3c(Nc4c(Cl)ccc5c4OCO5)ncnc3c2)CC1 [Saracatinib] + CCNC(=O)c1noc(-c2cc(C(C)C)c(O)cc2O)c1-c1ccc(CN2CCOCC2)cc1 [Luminespib] (partner 0.01 µM)
relative viability (HCC-44; first compound 0.02 µM): 0.972
relative viability (HCC-44; first compound 0.2 µM): 0.921
relative viability (HCC-44; first compound 0.6325 µM): 1.32
relative viability (HCC-44; first compound 2 µM): 0.952
relative viability (BEN; first compound 0.02 µM): 0.421
relative viability (BEN; first compound 0.6325 µM): 0.418
relative viability (BEN; first compound 2 µM): 0.401
relative viability (NCI-H727; first compound 0.02 µM): 0.242
relative viability (NCI-H727; first compound 0.2 µM): 0.316
relative viability (NCI-H727; first compound 0.6325 µM): 0.266
relative viability (NCI-H727; first compound 2 µM): 0.239
relative viability (NCI-H322M; first compound 0.02 µM): 0.867
relative viability (NCI-H322M; first compound 0.2 µM): 0.711
relative viability (NCI-H322M; first compound 0.6325 µM): 0.682
relative viability (NCI-H322M; first compound 2 µM): 0.378
relative viability (ABC-1; first compound 0.02 µM): 0.721
relative viability (ABC-1; first compound 0.2 µM): 0.43
relative viability (ABC-1; first compound 0.6325 µM): 0.599
relative viability (ABC-1; first compound 2 µM): 0.766
relative viability (PC-3 [JPC-3]; first compound 0.02 µM): 0.732
relative viability (PC-3 [JPC-3]; first compound 0.2 µM): 0.655
relative viability (PC-3 [JPC-3]; first compound 0.6325 µM): 0.675
relative viability (PC-3 [JPC-3]; first compound 2 µM): 0.537
relative viability (NCI-H1563; first compound 0.02 µM): 0.481
relative viability (NCI-H1563; first compound 0.2 µM): 0.488
relative viability (NCI-H1563; first compound 0.6325 µM): 0.537
relative viability (NCI-H1563; first compound 2 µM): 0.525
relative viability (NCI-H522; first compound 0.02 µM): 1.13
relative viability (NCI-H522; first compound 0.2 µM): 0.943
relative viability (NCI-H522; first compound 0.6325 µM): 1.11
relative viability (NCI-H522; first compound 2 µM): 0.949
relative viability (NCI-H1651; first compound 0.02 µM): 0.912
relative viability (NCI-H1651; first compound 0.2 µM): 0.516
relative viability (NCI-H1651; first compound 0.6325 µM): 0.965
relative viability (NCI-H1651; first compound 2 µM): 0.837
relative viability (EKVX; first compound 0.02 µM): 0.812
relative viability (EKVX; first compound 0.6325 µM): 0.883
relative viability (EKVX; first compound 2 µM): 0.532
relative viability (CAL-12T; first compound 0.02 µM): 0.335
relative viability (CAL-12T; first compound 0.2 µM): 0.407
relative viability (CAL-12T; first compound 0.6325 µM): 0.365
relative viability (CAL-12T; first compound 2 µM): 0.268
relative viability (NCI-H2023; first compound 0.02 µM): 0.773
relative viability (NCI-H2023; first compound 0.6325 µM): 0.735
relative viability (NCI-H2023; first compound 2 µM): 0.471
relative viability (NCI-H358; first compound 0.02 µM): 0.174
relative viability (NCI-H358; first compound 0.2 µM): 0.208
relative viability (NCI-H358; first compound 0.6325 µM): 0.309
relative viability (NCI-H358; first compound 2 µM): 0.318
relative viability (NCI-H520; first compound 0.02 µM): 0.213
relative viability (NCI-H520; first compound 0.6325 µM): 0.221
relative viability (NCI-H520; first compound 2 µM): 0.204
relative viability (EMC-BAC-2; first compound 0.02 µM): 1.21
relative viability (EMC-BAC-2; first compound 0.2 µM): 0.894
relative viability (EMC-BAC-2; first compound 0.6325 µM): 1.16
relative viability (EMC-BAC-2; first compound 2 µM): 0.978
relative viability (NCI-H838; first compound 0.02 µM): 0.264
relative viability (NCI-H838; first compound 0.2 µM): 0.411
relative viability (NCI-H838; first compound 0.6325 µM): 0.307
relative viability (NCI-H838; first compound 2 µM): 0.271
relative viability (NCI-H460; first compound 0.02 µM): 0.0378
relative viability (NCI-H460; first compound 0.2 µM): 0.0238
relative viability (NCI-H460; first compound 0.6325 µM): 0.0253
relative viability (NCI-H460; first compound 2 µM): 0.0287
relative viability (SW 900; first compound 0.02 µM): 0.187
relative viability (SW 900; first compound 0.2 µM): 0.152
relative viability (SW 900; first compound 0.6325 µM): 0.176
relative viability (SW 900; first compound 2 µM): 0.151
relative viability (HCC-15; first compound 0.02 µM): 0.343
relative viability (HCC-15; first compound 0.2 µM): 0.32
relative viability (HCC-15; first compound 0.6325 µM): 0.331
relative viability (HCC-15; first compound 2 µM): 0.176
relative viability (COR-L 105; first compound 0.02 µM): 0.893
relative viability (COR-L 105; first compound 0.2 µM): 0.692
relative viability (COR-L 105; first compound 0.6325 µM): 0.608
relative viability (COR-L 105; first compound 2 µM): 0.467
relative viability (201T; first compound 0.02 µM): 1.05
relative viability (201T; first compound 0.2 µM): 0.956
relative viability (201T; first compound 0.6325 µM): 0.965
relative viability (201T; first compound 2 µM): 0.832
relative viability (LK-2; first compound 0.02 µM): 0.218
relative viability (LK-2; first compound 0.2 µM): 0.209
relative viability (LK-2; first compound 0.6325 µM): 0.199
relative viability (LK-2; first compound 2 µM): 0.186
relative viability (LU99A; first compound 0.02 µM): 0.214
relative viability (LU99A; first compound 0.2 µM): 0.203
relative viability (LU99A; first compound 0.6325 µM): 0.26
relative viability (LU99A; first compound 2 µM): 0.232

Source: the supplement of paper PMC10307832
